{"source": "patent US7897401B2", "about": "“Control of apoptosis by controlling the propensity of ceramide channel formation” (University of Maryland, College Park, priority 2005, dated 2011)", "key": {"erythrocytes": {"system": "erythrocytes", "assay": "Permeabilization of erythrocytes (osmolytes of varying molecular weight)", "assay_type": "cell-based"}, "[1]": {"system": "ceramide channels in the MOM of rat liver mitochondria", "assay": "Complex IV accessibility assay (cytochrome c oxidation), isolated rat liver mitochondria", "assay_type": "biochemical", "conditions": "radiolabeled ceramide, rat liver mitochondria, FIG. 12", "description": "The amount of ceramide that needs to be added to mitochondria to achieve permeabilization of the MOM to proteins is high compared to physiological levels. However, it is not the absolute ceramide concentration in solution that is important, but rather the concentration of ceramide in the membrane. In addition, only a small percentage of the ceramide added to the solution actually inserts into the membrane. This issue was directly addressed by using radiolabeled ceramide and simultaneously measuring how much ceramide inserts into rat liver mitochondria and how much permeabilization is achieved in the MOM by measuring the accessibility of exogenously added cytochrome c. […] Levels measured in mitochondria in the early stages of apoptosis are 4 pmoles per nmole. Thus, the results are well within the physiological range. Note that after correcting for the membrane partitioning, long and short-chain ceramide have equal potency as expected from the model of the ceramide channel.\nThe ability of the naturally-occurring C16-ceramide to form channels in the mitochondrial outer membranes of isolated yeast mitochondria was assessed via the complex IV accessibility assay. This assay measures the bidirectional flux of cytochrome c across the mitochondrial outer membrane (MOM) by monitoring its oxidation by complex IV of the mitochondrial inner membrane electron transport chain. The initial rate of cytochrome c oxidation when expressed as a percent of the rate measured in mitochondria with damaged outer membranes is a good measure of the permeability of the MOM to proapoptotic proteins. This method has an advantage over simply looking for the release of cytochrome c because both channel prevention and reversal by a potential inhibitor can be evaluated.\nThus, mitochondria are isolated from wild type yeast and yeast strains expressing either human Bcl-2 or Bcl-xL according to previously published methods (Lee, A. et al. (1998) “THE ROLE OF YEAST VDAC GENES ON THE PERMEABILITY OF THE MITOCHONDRIAL OUTER MEMBRANE,” J. Membr. Biol. 161:173-181). Isolated yeast mitochondria are incubated with the naturally occurring C16-ceramide and its ability to form channels is evaluated according to the complex IV accessibility assay (Siskind, L. J. et al. (2002) “CERAMIDE CHANNELS INCREASE THE PERMEABILITY OF THE MITOCHONDRIAL OUTER MEMBRANE To SMALL PROTEINS,” J. Biol. Chem. 277:26796-26803). This assay measures the CN-sensitive oxidation of exogenously-added reduced cytochrome c by cytochrome c oxidase of the inner membrane. […] Mitochondria are incubated with test agents (e.g., C16-ceramide) for a predetermined period of time (e.g., 5-20 minutes), reduced cytochrome c is added and the absorbance is monitored at 550 nm. […]"}, "ceramide channels": {"system": "ceramide channels", "assay": "Screening for influence on ceramide channel formation in liposomes or planar membranes", "assay_type": "biochemical", "description": "In one embodiment, such methods comprise screening compounds for their ability to influence the formation of ceramide channels in liposomes or planar membranes. […] Such liposomes or planar membranes can be produced using any of a variety of lipids. Preferably, however, the constituents of the liposomes or planar membranes will be selected to mimic those of the MOM, or to have relevance to such membranes (see, Weissig, V. et al. (2006) “LIPOSOMES AND LIPOSOME-LIKE VESICLES FOR DRUG AND DNA DELIVERY TO MITOCHONDRIA,” J. Liposome Res. 16(3):249-264; Torchilin, V. P. (2006) “RECENT APPROACHES TO INTRACELLULAR DELIVERY OF DRUGS AND DNA AND ORGANELLE TARGETING,” Annu. Rev. Biomed. Eng. 8:343-375; Elrick, M. J. et al. (2006) “SPHINGOSINE, A PRODUCT OF CERAMIDE HYDROLYSIS, INFLUENCES THE FORMATION OF CERAMIDE CHANNELS,” Biophys. J. 1; 91(5):1749-1756; Bathori, G. et al. (2006) “CA2+-DEPENDENT CONTROL OF THE PERMEABILITY PROPERTIES OF THE MITOCHONDRIAL OUTER MEMBRANE AND VOLTAGE-DEPENDENT ANION-SELECTIVE CHANNEL (VDAC),” J. Biol. Chem. 281(25):17347-17358; Stiban, J. et al. (2006) “DIHYDROCERAMIDE HINDERS CERAMIDE CHANNEL FORMATION: IMPLICATIONS ON APOPIOSIS,” Apoptosis 11(5):773-780; Stover, T. C. et al. (2005) “SYSTEMIC DELIVERY OF LIPOSOMAL SHORT-CHAIN CERAMIDE LIMITS SOLID TUMOR GROWTH IN MURINE MODELS OF BREAST ADENOCARCINOMA,” Clin. Cancer Res. 11(9):3465-3474)."}}}
{"compound": "ceramide", "values": [{"measurement": "ceramide:phospholipids ratio needed to permeabilize an erythrocyte membrane relative to MOM", "setting": "erythrocytes", "result": 20, "unit": "fold"}, {"measurement": "ceramide inserted sufficient to permeabilize the outer membrane to cytochrome c", "setting": "[1]", "result": "2 pmoles per nmole of phospholip"}]}
{"compound": "OC[C@H]1O[C@H](O[C@H]2O[C@H](CO)[C@@H](O)[C@H](O)[C@H]2O)[C@H](O)[C@@H](O)[C@@H]1O", "note": "[trehalose]", "values": [{"measurement": "concentration exhibiting potent inhibitory effects on ceramide channels", "setting": "ceramide channels", "result": 50, "unit": "mM"}]}
